The source made the active and inactive calls.
Tests used:
[1] = system: Limosilactobacillus reuteri; assay: Effect on growth of Lactobacillus reuteri at 0.5 to 100 uM incubated for 24 hrs under anaerobic conditions by spectrophotometry; type: organism-based
[2] = AUC (0 to 24 hrs) in CD1 mouse at 10 mg/kg, po; type: ADME, organism-based; design: dose 10 mg/kg, time < 24 hr, route oral; settings: in vivo
[3] = Stability in mouse liver microsomes assessed as parent compound remaining level incubated for 15 mins; type: ADME, microsome; settings: read-out: Stability
Toxin B [4] = molecular target: T1, Toxin B (Clostridioides difficile, UniProt P18177); assay: Inhibition of C-terminal 6-His tagged recombinant Clostridium difficile toxin B catalytic fragment (Met1 to Leu543 residues) assessed as reduction in glucosyltransferase domain UDP-glucose hydrolysis activity using UDP-glucose and ADP Alexa633 tracer incubated fore 3 hrs by fluorescence polarization assay
T1 sequence (P18177 whole entry, the tested form may be a part): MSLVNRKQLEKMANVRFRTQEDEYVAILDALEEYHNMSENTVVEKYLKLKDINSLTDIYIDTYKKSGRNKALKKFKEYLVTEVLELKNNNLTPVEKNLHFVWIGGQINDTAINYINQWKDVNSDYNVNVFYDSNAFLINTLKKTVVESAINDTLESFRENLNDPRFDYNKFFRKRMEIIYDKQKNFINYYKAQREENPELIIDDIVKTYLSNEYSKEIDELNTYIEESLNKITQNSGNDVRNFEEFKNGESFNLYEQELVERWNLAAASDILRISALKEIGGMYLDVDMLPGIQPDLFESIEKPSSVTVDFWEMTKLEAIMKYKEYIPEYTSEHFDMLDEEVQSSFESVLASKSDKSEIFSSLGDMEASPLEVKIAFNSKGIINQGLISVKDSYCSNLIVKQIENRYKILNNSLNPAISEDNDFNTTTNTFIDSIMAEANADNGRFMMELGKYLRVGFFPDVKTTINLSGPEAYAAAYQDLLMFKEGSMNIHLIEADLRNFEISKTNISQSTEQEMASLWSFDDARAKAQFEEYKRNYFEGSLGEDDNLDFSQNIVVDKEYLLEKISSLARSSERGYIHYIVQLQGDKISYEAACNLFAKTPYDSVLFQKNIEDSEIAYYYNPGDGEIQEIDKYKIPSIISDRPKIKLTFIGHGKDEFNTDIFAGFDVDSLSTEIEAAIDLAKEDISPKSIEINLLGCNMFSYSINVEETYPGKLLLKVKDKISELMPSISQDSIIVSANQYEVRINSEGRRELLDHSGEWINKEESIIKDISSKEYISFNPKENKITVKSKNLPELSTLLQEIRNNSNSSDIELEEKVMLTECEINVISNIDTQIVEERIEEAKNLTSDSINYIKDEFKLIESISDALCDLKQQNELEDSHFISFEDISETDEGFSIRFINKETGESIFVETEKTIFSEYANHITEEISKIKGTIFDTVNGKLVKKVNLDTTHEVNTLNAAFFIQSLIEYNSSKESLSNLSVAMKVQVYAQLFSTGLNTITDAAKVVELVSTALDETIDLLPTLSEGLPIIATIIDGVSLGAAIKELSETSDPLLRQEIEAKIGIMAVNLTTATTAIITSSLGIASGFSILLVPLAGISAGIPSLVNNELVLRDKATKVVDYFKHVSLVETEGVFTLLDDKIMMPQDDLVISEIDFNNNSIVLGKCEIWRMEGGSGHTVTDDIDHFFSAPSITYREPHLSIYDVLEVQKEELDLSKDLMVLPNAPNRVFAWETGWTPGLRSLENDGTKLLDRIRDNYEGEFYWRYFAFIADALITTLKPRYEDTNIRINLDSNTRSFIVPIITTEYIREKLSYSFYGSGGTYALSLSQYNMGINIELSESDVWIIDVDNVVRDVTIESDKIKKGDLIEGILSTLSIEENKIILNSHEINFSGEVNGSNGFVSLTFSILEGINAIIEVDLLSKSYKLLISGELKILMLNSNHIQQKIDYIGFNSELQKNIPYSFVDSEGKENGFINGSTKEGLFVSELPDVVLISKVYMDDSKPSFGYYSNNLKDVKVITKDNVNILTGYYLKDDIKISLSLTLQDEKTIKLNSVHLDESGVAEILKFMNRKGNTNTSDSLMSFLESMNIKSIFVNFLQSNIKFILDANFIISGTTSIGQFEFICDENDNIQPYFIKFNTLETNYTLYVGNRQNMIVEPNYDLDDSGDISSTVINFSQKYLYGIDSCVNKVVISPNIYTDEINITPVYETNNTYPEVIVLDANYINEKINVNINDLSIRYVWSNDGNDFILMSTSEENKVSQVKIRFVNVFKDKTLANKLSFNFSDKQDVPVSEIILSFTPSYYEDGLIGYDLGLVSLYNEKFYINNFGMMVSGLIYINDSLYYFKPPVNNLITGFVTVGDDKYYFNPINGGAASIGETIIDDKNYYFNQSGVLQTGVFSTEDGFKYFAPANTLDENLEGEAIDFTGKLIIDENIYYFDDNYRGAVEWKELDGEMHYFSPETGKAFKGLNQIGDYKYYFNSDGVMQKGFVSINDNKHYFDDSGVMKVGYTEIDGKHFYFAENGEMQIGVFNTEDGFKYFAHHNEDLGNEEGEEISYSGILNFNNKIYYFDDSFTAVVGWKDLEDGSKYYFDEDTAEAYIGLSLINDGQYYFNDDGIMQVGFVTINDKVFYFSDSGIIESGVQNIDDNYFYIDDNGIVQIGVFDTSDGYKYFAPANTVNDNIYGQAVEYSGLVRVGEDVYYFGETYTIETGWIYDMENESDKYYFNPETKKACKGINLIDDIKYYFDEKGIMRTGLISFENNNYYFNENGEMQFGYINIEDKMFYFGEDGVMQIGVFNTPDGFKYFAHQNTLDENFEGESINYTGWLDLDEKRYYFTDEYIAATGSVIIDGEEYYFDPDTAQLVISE

Bacteroides fragilis = assay: Effect on growth of Bacteroides fragilis at 0.5 to 100 uM incubated for 48 hrs under anaerobic conditions by spectrophotometry; type: organism-based
Toxin A = Toxin A (Clostridioides difficile, UniProt P16154); assay: Inhibition of Clostridium difficile toxin A […] assessed as reduction in caspase 3/7 activation pre-incubated for 1 hr before TcdA addition by luminescence based assay1; type: cell-based
Toxin A, sequence (P16154 whole entry): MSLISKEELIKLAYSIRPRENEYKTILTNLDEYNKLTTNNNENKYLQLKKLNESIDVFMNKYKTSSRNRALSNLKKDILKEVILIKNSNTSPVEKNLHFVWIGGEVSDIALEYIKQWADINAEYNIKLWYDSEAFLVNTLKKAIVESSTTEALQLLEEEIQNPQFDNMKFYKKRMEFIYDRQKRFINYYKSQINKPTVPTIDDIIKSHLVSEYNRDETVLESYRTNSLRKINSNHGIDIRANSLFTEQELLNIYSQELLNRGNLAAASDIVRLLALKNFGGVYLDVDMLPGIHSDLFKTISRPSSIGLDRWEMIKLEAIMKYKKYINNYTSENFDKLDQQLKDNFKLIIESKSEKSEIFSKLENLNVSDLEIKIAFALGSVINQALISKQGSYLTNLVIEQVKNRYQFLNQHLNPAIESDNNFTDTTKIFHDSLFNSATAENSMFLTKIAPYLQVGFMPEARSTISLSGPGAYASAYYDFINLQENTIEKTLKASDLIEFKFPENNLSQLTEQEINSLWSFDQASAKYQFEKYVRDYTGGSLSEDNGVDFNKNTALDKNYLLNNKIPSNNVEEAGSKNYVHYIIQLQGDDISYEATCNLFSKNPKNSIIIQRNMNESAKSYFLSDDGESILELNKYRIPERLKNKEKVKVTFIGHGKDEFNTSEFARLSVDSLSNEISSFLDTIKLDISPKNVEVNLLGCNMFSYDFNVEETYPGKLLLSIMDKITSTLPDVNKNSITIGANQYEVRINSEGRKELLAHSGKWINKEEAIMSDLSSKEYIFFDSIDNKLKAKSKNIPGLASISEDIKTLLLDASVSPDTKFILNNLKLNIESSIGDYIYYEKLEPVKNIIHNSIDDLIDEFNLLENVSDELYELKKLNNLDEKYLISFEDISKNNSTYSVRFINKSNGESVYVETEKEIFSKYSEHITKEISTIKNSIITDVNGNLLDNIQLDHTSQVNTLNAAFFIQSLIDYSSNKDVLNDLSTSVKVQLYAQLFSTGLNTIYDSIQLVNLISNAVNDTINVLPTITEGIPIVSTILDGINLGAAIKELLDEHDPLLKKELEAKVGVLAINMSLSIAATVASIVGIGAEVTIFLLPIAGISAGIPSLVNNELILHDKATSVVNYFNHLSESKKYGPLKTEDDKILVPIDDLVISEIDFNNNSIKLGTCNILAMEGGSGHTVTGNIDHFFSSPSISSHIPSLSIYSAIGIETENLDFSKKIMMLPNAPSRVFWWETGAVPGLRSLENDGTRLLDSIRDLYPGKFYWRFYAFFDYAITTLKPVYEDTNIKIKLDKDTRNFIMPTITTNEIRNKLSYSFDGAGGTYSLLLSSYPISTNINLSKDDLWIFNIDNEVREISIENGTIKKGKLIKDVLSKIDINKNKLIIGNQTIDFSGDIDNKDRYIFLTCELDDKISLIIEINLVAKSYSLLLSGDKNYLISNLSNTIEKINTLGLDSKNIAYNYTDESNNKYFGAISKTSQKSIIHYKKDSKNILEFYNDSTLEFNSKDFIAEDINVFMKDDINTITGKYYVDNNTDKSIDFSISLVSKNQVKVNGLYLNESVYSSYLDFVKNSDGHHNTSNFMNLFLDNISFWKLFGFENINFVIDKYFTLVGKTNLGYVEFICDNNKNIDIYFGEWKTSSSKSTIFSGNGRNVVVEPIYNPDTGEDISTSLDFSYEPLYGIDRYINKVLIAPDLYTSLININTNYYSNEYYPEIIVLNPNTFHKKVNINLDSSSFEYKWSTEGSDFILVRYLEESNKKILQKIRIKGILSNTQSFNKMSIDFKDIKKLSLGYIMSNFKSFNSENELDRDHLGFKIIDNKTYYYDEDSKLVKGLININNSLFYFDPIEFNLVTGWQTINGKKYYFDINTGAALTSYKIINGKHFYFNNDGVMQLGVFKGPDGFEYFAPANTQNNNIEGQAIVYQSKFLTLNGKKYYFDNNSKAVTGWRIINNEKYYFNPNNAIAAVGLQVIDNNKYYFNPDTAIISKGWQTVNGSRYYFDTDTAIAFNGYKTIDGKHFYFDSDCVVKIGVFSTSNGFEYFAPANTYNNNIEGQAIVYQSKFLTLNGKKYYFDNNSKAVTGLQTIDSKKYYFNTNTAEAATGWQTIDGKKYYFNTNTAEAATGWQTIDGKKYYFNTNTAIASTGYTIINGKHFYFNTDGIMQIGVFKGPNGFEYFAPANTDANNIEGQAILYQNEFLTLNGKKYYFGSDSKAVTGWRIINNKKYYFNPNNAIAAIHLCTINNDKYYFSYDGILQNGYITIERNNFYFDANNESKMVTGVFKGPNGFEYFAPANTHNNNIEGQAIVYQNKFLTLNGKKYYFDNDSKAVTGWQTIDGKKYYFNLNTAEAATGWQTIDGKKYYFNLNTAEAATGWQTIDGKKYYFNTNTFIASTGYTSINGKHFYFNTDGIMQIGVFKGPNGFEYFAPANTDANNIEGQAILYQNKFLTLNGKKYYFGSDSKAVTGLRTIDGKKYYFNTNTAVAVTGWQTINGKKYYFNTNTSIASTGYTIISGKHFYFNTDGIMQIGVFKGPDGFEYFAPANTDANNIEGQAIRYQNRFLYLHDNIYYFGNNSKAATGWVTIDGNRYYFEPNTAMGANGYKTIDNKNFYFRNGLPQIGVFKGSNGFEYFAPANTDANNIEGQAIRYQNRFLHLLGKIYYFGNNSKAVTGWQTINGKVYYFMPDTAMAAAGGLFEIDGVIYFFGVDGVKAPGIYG

[5] = Tmax in CD1 mouse at 10 mg/kg, po; type: ADME, organism-based; settings: in vivo
[6] = Stability in mouse plasma assessed as parent compound remaining measured after 2 hrs post dose; type: ADME, cell-free
Toxin B [7] = molecular target: T1, Toxin B; assay: Inhibition of Clostridium difficile toxin B […] assessed as reduction in caspase 3/7 activation pre-incubated for 1 hr before TcdB addition by luminescence based assay1; type: cell-based
[8] = Stability in human liver microsomes assessed as parent compound remaining level incubated for 15 mins; type: ADME, microsome; settings: read-out: Stability
[9] = Stability in mouse plasma assessed as parent compound remaining measured after 15 mins post dose; type: ADME, cell-free; settings: read-out: Stability
[10] = AUC (0 to 24 hrs) in CD1 mouse at 1 mg/kg, iv; type: ADME, organism-based; design: dose 1 mg/kg, time < 24 hr, route intravenous; settings: in vivo
[11] = Cmax in CD1 mouse at 10 mg/kg, po; type: ADME, organism-based; design: dose 10 mg/kg, route oral; settings: in vivo
Clostridioides difficile = assay: Effect on growth of Clostridium difficile at 0.5 to 100 uM incubated for 24 hrs under anaerobic conditions by spectrophotometry; type: functional, organism-based
[12] = Cmax in CD1 mouse at 1 mg/kg, iv; type: ADME, organism-based; design: dose 1 mg/kg, route intravenous; settings: in vivo
Bifidobacterium longum = assay: Effect on growth of Bifidobacterium longum at 0.5 to 100 uM incubated for 24 hrs under anaerobic conditions by spectrophotometry; type: organism-based
[13] = Stability in mouse plasma assessed as parent compound remaining measured during 0 to 120 mins post dose; type: ADME, cell-free
[14] = Elimination half life in CD1 mouse at 1 mg/kg, iv; type: ADME, organism-based; settings: in vivo, read-out: beta t1/2 (converted)
[15] = Apparent volume of distribution in CD1 mouse at 1 mg/kg, iv; type: ADME, organism-based; settings: in vivo, read-out: Vz
[16] = Clearance in CD1 mouse at 1 mg/kg, iv; type: ADME, organism-based; settings: in vivo

SMILES	Activity [1]	AUC(0-t) at 24 h [2]	remaining at 0.25 h [3]	IC50 (Toxin B [4])	Activity (Bacteroides fragilis)	IC50 (Toxin A)	Tmax [5]	Stability [6]	IC50 (Toxin B [7])	remaining at 0.25 h [8]	remaining at 0.25 h [9]	AUC(0-t) at 24 h [10]	Cmax [11]	Activity (Clostridioides difficile)	Cmax [12]	Activity (Bifidobacterium longum)	Stability [13]	half-life [14]	Vd [15]	clearance [16]
COc1cnc(NC(=O)c2ccc(CN3C(=O)c4ccc(Cl)cc4NC(=O)[C@H]3Cc3ccccn3)cc2)nc1	Non-Toxic	181 ng·h/mL	77%	7 nM	Non-Toxic	2600 nM	30 min	Unstable	520 nM	90%	50%	2 ng·h/mL	27 ng/mL	inactive	2 ng/mL	Non-Toxic				
Cc1ccc(NC(=O)c2ccc(CN3C(=O)c4ccc(Cl)cc4NC(=O)[C@H]3Cc3ccccn3)cc2)nc1	Non-Toxic	1070 ng·h/mL	43%	1 nM	Non-Toxic	3200 nM	15 min		170 nM	63%		200 ng·h/mL	2690 ng/mL	inactive	1030 ng/mL	Non-Toxic	Unstable	60 min	6.9 L/kg	76 mL/min/kg
O=C(Nc1ccccn1)c1ccc(CN2C(=O)c3ccc(Cl)cc3NC(=O)[C@H]2Cc2cccnc2)cc1	Non-Toxic		57%	9 nM	Non-Toxic				4500 nM	97%				inactive		Non-Toxic				
O=C(Nc1cnccn1)c1ccc(CN2C(=O)c3ccc(Cl)cc3NC(=O)[C@H]2Cc2cccnc2)cc1	Non-Toxic		98%	78 nM	Non-Toxic				13000 nM	92%				inactive		Non-Toxic				
O=C(Nc1nccs1)c1ccc(CN2C(=O)c3ccc(Cl)cc3NC(=O)[C@H]2Cc2cccnc2)cc1	Non-Toxic		67%	42 nM	Non-Toxic				20000 nM	61%				inactive		Non-Toxic				
O=C(Nc1ccccn1)c1ccc(CN2C(=O)c3ccc(Cl)cc3NC(=O)[C@H]2Cc2ccccn2)cc1	Non-Toxic		53%	3 nM	Non-Toxic				230 nM	99%				inactive		Non-Toxic				
COc1ccc(NC(=O)c2ccc(CN3C(=O)c4ccc(Cl)cc4NC(=O)[C@H]3Cc3ccccn3)cc2)nc1	Non-Toxic		61%	3 nM	Non-Toxic	1100 nM			43 nM	81%				inactive		Non-Toxic				
